Publication PMC6950293, “A Rapid Extraction Method Combined with a Monoclonal Antibody-Based Immunoassay for the Detection of Amatoxins” (Toxins, 2019)
In brackets after ≈: the same amount, converted by molar mass. Like-named read-outs stand apart in the source and are kept apart here. *1 amine or outer side, *2 acyl side, *3 side chain or, on linkers, in order; H or OH if unused. Where a SMILES comes first, the peptide text is derived from it. Bridges are numbered along the chain shown (N, C = ends). [ ]: non-standard residue; d: D form. ξ: configuration not given here. Adda = CO[C@@H](Cc1ccccc1)[C@@H](C)/C=C(C)/C=C/[C@H](N[*:1])[C@H](C)C(=O)[*:2]; Trp(2-yl) = O=C([C@H](Cc1c([*:3])[nH]c2ccccc12)N[*:1])[*:2]; dAsp(3S-Me) = C[C@H](C(=O)[*:3])[C@@H](N[*:1])C(=O)[*:2]; ξTrp(2-yl) = O=C(C(Cc1c([*:3])[nH]c2ccccc12)N[*:1])[*:2]; Leu(4R-OH,5-OH) = C[C@](O)(CO)C[C@H](N)C(=O)O; d(γGlu) = O=C(O)[C@@H](CCC(=O)[*:2])N[*:1]; X1 = CC(O)(CO)CC(N[*:1])C(=O)[*:2]; cisHyp = O=C(O)[C@@H]1C[C@H](O)CN1; ξAsp(3ξ-OH) = NC(C(=O)O)C(O)C(=O)O; Hyp = O=C(O)[CH]1C[CH](O)CN1; NMeDha = C=C(NC)C(=O)O

What was measured:
[1] = system: mAb AMA9G3; experiment: indirect competitive ELISA (cELISA) with mAb AMA9G3; type: binding, mouse; details: for working range of detection (estimated as IC30 to IC80): AMA9G3
[2] = system: mAb AMA9C12; experiment: indirect competitive ELISA (cELISA) with mAb AMA9C12; type: binding, mouse
[3] = system: polyclonal antibody (pAb); details: Bühlmann Assay ref 15; cited from earlier work
[4] = system: humans; details: humans ref 7; cited from earlier work
[5] = system: single chain variable fragment of a mAb; details: single chain variable fragment of a mAb ref 24; cited from earlier work
[6] = system: mAb; details: another mAb, different coupling strategy ref 16; cited from earlier work
[7] = system: mice; details: mice ref 6; cited from earlier work
[8] = mAb AMA9G3, coating antigen PERI-AMA-BSA, triplicate
[9] = mAb AMA9G3, (IC50 α-AMA)/(IC50 test inhibitor) × 100
[10] = mAb AMA9C12, coating antigen PERI-AMA-BSA, triplicate
[11] = mAb AMA9C12, (IC50 α-AMA)/(IC50 test inhibitor) × 100

| Structure (SMILES) | IC50 [1, 8] [µg/mL] | Cross Reactivity (%) [1, 9] [%] | IC50 [2, 10] [µg/mL] | Cross Reactivity (%) [2, 11] [%] | Cross Reactivity (%) [3] | also measured |
| --- | --- | --- | --- | --- | --- | --- |
| N[C@H](C(=O)O)c1cc(=O)[nH]o1 [ibotenic acid] | >1 | <0.3 | >1 | <0.3 | – | – |
| C=C1C(=O)N[C@H](C)C(=O)N[C@@H](CC(C)C)C(=O)N[C@@H](C(=O)O)[C@H](C)C(=O)N[C@@H](CCCNC(=N)N)C(=O)N[C@@H](/C=C/C(C)=C/[C@H](C)[C@H](Cc2ccccc2)OC)[C@H](C)C(=O)N[C@@H](C(=O)O)CCC(=O)N1C [microcystin-LR] (R[Adda][d(γGlu)][NMeDha][dA]L[dAsp(3S-Me)]-OH; lactam N-7) | – | – | – | – | – | Cross Reactivity (%) [1]: <0.3%; IC50 [1]: >1 µg/mL; Cross Reactivity (%) [2]: <0.3%; IC50 [2]: >1 µg/mL |
| NCc1cc(=O)[nH]o1 [muscimol] | >1 | <0.3 | >1 | <0.3 | – | – |
| C/C=C1/C(=O)N[C@@H](C(=O)O)[C@H](C)C(=O)N[C@@H](CCCNC(=N)N)C(=O)N[C@@H](/C=C/C(C)=C/[C@H](C)[C@H](Cc2ccccc2)OC)[C@H](C)C(=O)N[C@@H](C(=O)O)CCC(=O)N1C [nodularin] | – | – | – | – | – | Cross Reactivity (%) [1]: <0.3%; IC50 [1]: >1 µg/mL; Cross Reactivity (%) [2]: <0.3%; IC50 [2]: >1 µg/mL |
| CC1NC(=O)C2CC(O)CN2C(=O)C2CSc3[nH]c4ccccc4c3CC(NC1=O)C(=O)NC(CC(C)(O)CO)C(=O)NC(C(C)C)C(=O)NC(C(O)C(=O)O)C(=O)N2 (stereo not drawn) [phallacidin] (cyclo([ξAsp(3ξ-OH)]C[Hyp]A[ξTrp(2-yl)][X1]V); thioether 2-5; configuration not given here) | >1 | <0.3 | >1 | <0.3 | Not detected | – |
| C[C@@H]1NC(=O)[C@H](C[C@@](C)(O)CO)NC(=O)[C@@H]2Cc3c([nH]c4ccccc34)SC[C@H](NC(=O)[C@@H]([C@H](C)O)NC1=O)C(=O)N1C[C@@H](O)C[C@H]1C(=O)N[C@@H](C)C(=O)N2 [phalloidin] (cyclo(A[dT]C[cisHyp]A[Trp(2-yl)][Leu(4R-OH,5-OH)]); thioether 3-6) | >1 | <0.3 | >1 | <0.3 | Not detected | – |
| CN(C)CCc1c[nH]c2cccc(OP(=O)(O)O)c12 [psilocybin] | >1 | <0.3 | >1 | <0.3 | – | – |
| CC[C@H](C)[C@@H]1NC(=O)CNC(=O)[C@@H]2Cc3c([nH]c4cc(O)ccc34)[S@+]([O-])C[C@H](NC(=O)CNC1=O)C(=O)N[C@@H](CC(N)=O)C(=O)N1C[C@H](O)C[C@H]1C(=O)N[C@@H]([C@@H](C)[C@@H](O)CO)C(=O)N2 [α-amanitin] | 0.00157 ± 7e-05 (≈ 0.00171 µM) | 100 | 0.00266 ± 0.00018 (≈ 0.00289 µM) | 100 | 100% | dose severely toxic [4]: 0.3 mg/kg; IC50 [5]: 0.077 µg/mL (≈ 0.0838 µM); IC50 [6]: 0.066 µg/mL (≈ 0.0718 µM); working range of detection (estimated as IC30 to IC80) [1]: 0.0007 to 0.0031 µg/mL; competitive inhibition / binding (in words) ([1]; mAb AMA9G3): competitively inhibited; IC50 ([1]; mAb AMA9G3, coating antigen PERI-AMA-BSA, triplicate, listed as α-AMA): ≈ 1.6 ng mL^−1; competitive inhibition / binding (in words) ([2]; mAb AMA9C12): competitively inhibited; LD50 [7]: 0.1 mg/kg |
| CC[C@H](C)[C@@H]1NC(=O)CNC(=O)[C@@H]2Cc3c([nH]c4cc(O)ccc34)[S+]([O-])C[C@H](NC(=O)CNC1=O)C(=O)N[C@@H](CC(=O)O)C(=O)N1CC(O)C[C@H]1C(=O)N[C@@H]([C@@H](C)[C@@H](O)CO)C(=O)N2 (stereo partly drawn) [β-amanitin] | 0.0242 ± 0.0062 (≈ 0.0263 µM) | 6.5 | >1 | <0.3 | 0.1% | IC50 [5]: 0.115 µg/mL (≈ 0.125 µM); IC50 [6]: 0.097 µg/mL (≈ 0.105 µM); working range of detection (estimated as IC30 to IC80) [1]: 0.0036 to 0.1291 µg/mL; competitive inhibition / binding (in words) ([1]; mAb AMA9G3): competitively inhibited; IC50 ([1]; mAb AMA9G3, coating antigen PERI-AMA-BSA, triplicate, listed as β-AMA): 0.024 µg/mL (≈ 0.0261 µM); competitive inhibition / binding (in words) ([2]; mAb AMA9C12): no reduction in signal response |
